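Tested at 5 concentrations; 48 h exposure; 96-well plates; endpoints linearly interpolated, else capped at highest concentration. The concentration for 50% growth inhibition is given as GI50. TGI marks complete inhibition of growth.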
Columns and labels:
Test in all cases: NCI anticancer screen, dose series, 48 h
HCC-2998 colon = system: HCC-2998 colon
SNB-19 CNS = system: SNB-19 CNS
HT29 colon = system: HT29 colon
MDA-MB-435 = system: MDA-MB-435
SNB-75 CNS = system: SNB-75 CNS
SF-295 CNS = system: SF-295 CNS
SK-MEL-28 melanoma = system: SK-MEL-28 melanoma
HOP-62 NSCLC = system: HOP-62 NSCLC
MCF7 breast = system: MCF7 breast
HCT-116 colon = system: HCT-116 colon
SF-268 CNS = system: SF-268 CNS
NCI/ADR-RES ovarian = system: NCI/ADR-RES ovarian
HOP-92 NSCLC = system: HOP-92 NSCLC
NCI-H522 lung = system: NCI-H522 lung
SN12C renal = system: SN12C renal
LOX IMVI melanoma = system: LOX IMVI melanoma
KM12 colon = system: KM12 colon
OVCAR-5 ovarian = system: OVCAR-5 ovarian
BT-549 breast = system: BT-549 breast
RXF 393 renal = system: RXF 393 renal
ACHN renal = system: ACHN renal
TK-10 renal = system: TK-10 renal
PC-3 prostate = system: PC-3 prostate
A549 NSCLC = system: A549 NSCLC
EKVX NSCLC = system: EKVX NSCLC
OVCAR-3 ovarian = system: OVCAR-3 ovarian
SF-539 CNS = system: SF-539 CNS
UACC-257 melanoma = system: UACC-257 melanoma
IGROV1 ovarian = system: IGROV1 ovarian
T-47D breast = system: T-47D breast
M14 melanoma = system: M14 melanoma
NCI-H460 lung = system: NCI-H460 lung
HS 578T breast = system: HS 578T breast
UACC-62 melanoma = system: UACC-62 melanoma
MOLT-4 leukemia = system: MOLT-4 leukemia
DU-145 prostate = system: DU-145 prostate
K-562 leukemia = system: K-562 leukemia
SK-MEL-2 melanoma = system: SK-MEL-2 melanoma
NCI-H23 lung = system: NCI-H23 lung
SK-MEL-5 melanoma = system: SK-MEL-5 melanoma
OVCAR-4 ovarian = system: OVCAR-4 ovarian
COLO 205 colon = system: COLO 205 colon
MALME-3M melanoma = system: MALME-3M melanoma
NCI-H226 lung = system: NCI-H226 lung
OVCAR-8 ovarian = system: OVCAR-8 ovarian
HCT-15 colon = system: HCT-15 colon
RPMI-8226 leukemia = system: RPMI-8226 leukemia
A498 renal = system: A498 renal
CAKI-1 renal = system: CAKI-1 renal
SK-OV-3 ovarian = system: SK-OV-3 ovarian
786-0 renal = system: 786-0 renal
SW-620 colon = system: SW-620 colon
UO-31 renal = system: UO-31 renal
U251 CNS = system: U251 CNS
MDA-MB-231 breast = system: MDA-MB-231 breast

N#Cc1ccccc1C#C/C=C\C#Cc1cccs1
GI50 (HCC-2998 colon): 28.3 µM | TGI (HCC-2998 colon): > 100 µM | GI50 (SNB-19 CNS): 45.8 µM | TGI (SNB-19 CNS): > 100 µM | GI50 (HT29 colon): 11.8 µM | TGI (HT29 colon): > 100 µM | GI50 (MDA-MB-435): 2.11 µM | TGI (MDA-MB-435): 4.35 µM | GI50 (SNB-75 CNS): 26.2 µM | TGI (SNB-75 CNS): > 100 µM | GI50 (SF-295 CNS): 13.8 µM | TGI (SF-295 CNS): 31.9 µM | GI50 (SK-MEL-28 melanoma): 14.8 µM | TGI (SK-MEL-28 melanoma): > 100 µM | GI50 (HOP-62 NSCLC): 16.5 µM | TGI (HOP-62 NSCLC): 61.4 µM | GI50 (MCF7 breast): 6.07 µM | TGI (MCF7 breast): 45.9 µM | GI50 (HCT-116 colon): 11.7 µM | TGI (HCT-116 colon): 46 µM | GI50 (SF-268 CNS): 19.1 µM | TGI (SF-268 CNS): 55.7 µM | GI50 (NCI/ADR-RES ovarian): 25.4 µM | TGI (NCI/ADR-RES ovarian): > 100 µM | GI50 (HOP-92 NSCLC): 25.8 µM | TGI (HOP-92 NSCLC): > 100 µM | GI50 (NCI-H522 lung): 36.8 µM | TGI (NCI-H522 lung): > 100 µM | GI50 (SN12C renal): 33 µM | TGI (SN12C renal): > 100 µM | GI50 (LOX IMVI melanoma): 15.7 µM | TGI (LOX IMVI melanoma): 92.4 µM | GI50 (KM12 colon): 3.93 µM | TGI (KM12 colon): 16.8 µM | GI50 (OVCAR-5 ovarian): 70.7 µM | TGI (OVCAR-5 ovarian): > 100 µM | GI50 (BT-549 breast): 12.2 µM | TGI (BT-549 breast): 94.8 µM | GI50 (RXF 393 renal): 14.9 µM | TGI (RXF 393 renal): 48.1 µM | GI50 (ACHN renal): 32 µM | TGI (ACHN renal): > 100 µM | GI50 (TK-10 renal): 20.7 µM | TGI (TK-10 renal): 62.5 µM | GI50 (PC-3 prostate): 28.6 µM | TGI (PC-3 prostate): > 100 µM | GI50 (A549 NSCLC): 25 µM | TGI (A549 NSCLC): > 100 µM | GI50 (EKVX NSCLC): 24.8 µM | TGI (EKVX NSCLC): > 100 µM | GI50 (OVCAR-3 ovarian): 14.1 µM | TGI (OVCAR-3 ovarian): 34.2 µM | GI50 (SF-539 CNS): 14.4 µM | TGI (SF-539 CNS): 34.1 µM | GI50 (UACC-257 melanoma): 32.5 µM | TGI (UACC-257 melanoma): > 100 µM | GI50 (IGROV1 ovarian): 42.7 µM | TGI (IGROV1 ovarian): > 100 µM | GI50 (T-47D breast): 12.6 µM | TGI (T-47D breast): > 100 µM | GI50 (M14 melanoma): 11.4 µM | TGI (M14 melanoma): 56.5 µM | GI50 (NCI-H460 lung): 21.9 µM | TGI (NCI-H460 lung): 75.8 µM | GI50 (HS 578T breast): 8.03 µM | TGI (HS 578T breast): 53.7 µM | GI50 (UACC-62 melanoma): 12.3 µM | TGI (UACC-62 melanoma): > 100 µM | GI50 (MOLT-4 leukemia): 8.19 µM | TGI (MOLT-4 leukemia): > 100 µM | GI50 (DU-145 prostate): 19.7 µM | TGI (DU-145 prostate): 77.3 µM | GI50 (K-562 leukemia): 6.46 µM | TGI (K-562 leukemia): > 100 µM | GI50 (SK-MEL-2 melanoma): 62.8 µM | TGI (SK-MEL-2 melanoma): > 100 µM | GI50 (NCI-H23 lung): 33.2 µM | TGI (NCI-H23 lung): > 100 µM | GI50 (SK-MEL-5 melanoma): 14.5 µM | TGI (SK-MEL-5 melanoma): 39 µM | GI50 (OVCAR-4 ovarian): 34.9 µM | TGI (OVCAR-4 ovarian): > 100 µM | GI50 (COLO 205 colon): 14.3 µM | TGI (COLO 205 colon): 32.2 µM | GI50 (MALME-3M melanoma): 19.5 µM | TGI (MALME-3M melanoma): 48.1 µM | GI50 (NCI-H226 lung): 47 µM | TGI (NCI-H226 lung): > 100 µM | GI50 (OVCAR-8 ovarian): 30.3 µM | TGI (OVCAR-8 ovarian): > 100 µM | GI50 (HCT-15 colon): 14.5 µM | TGI (HCT-15 colon): 83.1 µM | GI50 (RPMI-8226 leukemia): 11.1 µM | TGI (RPMI-8226 leukemia): 51.2 µM | GI50 (A498 renal): 18.5 µM | TGI (A498 renal): 54.3 µM | GI50 (CAKI-1 renal): 16 µM | TGI (CAKI-1 renal): 78 µM | GI50 (SK-OV-3 ovarian): 28.9 µM | TGI (SK-OV-3 ovarian): > 100 µM | GI50 (786-0 renal): 29.4 µM | TGI (786-0 renal): 84.1 µM | GI50 (SW-620 colon): 7.78 µM | TGI (SW-620 colon): > 100 µM | GI50 (UO-31 renal): 46.5 µM | TGI (UO-31 renal): > 100 µM | GI50 (U251 CNS): 16.4 µM | TGI (U251 CNS): 67.1 µM | GI50 (MDA-MB-231 breast): 26.1 µM | TGI (MDA-MB-231 breast): > 100 µM
